In patent publication US20220170028A1, “NOVEL INTERLEUKIN-2 VARIANTS AND BIFUNCTIONAL FUSION MOLECULES THEREOF” (Cugene Inc, priority 2019, published 2022):
Entries after “also recorded” stand apart in the source; their conditions may differ.

Columns and labels:
[1] = Transient expression level of IL-2 Fc fusion constructs in HEK-293F cells
Protocol: The constructs were produced by co-transfecting HEK293-F cells growing in suspension with the mammalian expression vectors using polyethylenimine (PEI, 25,000 MW linear, Polysciences). If there were two or more expression vectors, the vectors were transfected in a 1:1 ratio. For transfection, HEK293 cells were cultivated in serum free FreeStyle™ 293 Expression Medium (ThermoFisher). For production in 1000 ml shaking flasks (working volume 330 mL), HEK293 cells were seeded at a density of 0.8×10^6 cells/ml 24 hours before transfection. A total of 330 μg of DNA expression vectors were mixed with 16.7 ml Opti-mem Medium (ThermoFisher). After addition of 0.33 mg PEI diluted in 16.7 ml Opti-mem Medium, the mixture was vortexed for 15 sec and subsequently incubated for 10 min at room temperature. The DNA/PEI solution was then added to the cells and incubated at 37° C. in an incubator with 8% CO2. Sodium butyrate (Millipore Sigma) was added to the cells at day 4 at a final concentration of […] to help sustain protein expression. After 6 days cultivation, supernatant was collected for purification by centrifugation for 20 min at 2200 rpm. The solution was sterile filtered (0.22 μm filter, Corning). The secreted protein was purified from cell culture supernatants using Protein A affinity chromatography.
(§1) S125I substitution was thus introduced into a number of IL-2 variant Fc fusion molecules. The constructs harboring Ile-125 substitution in IL-2 were expressed using the same vector and in the same culturing conditions as their Ser-125 counterparts and purified using MabSelectSure. The expression level in mg/L and purity assessed by SEC chromatography in aggregation % of exemplary molecules are summarized in Table 6. The two molecules in the same row of Table 6 share the same other amino acid substitution(s) and differ only at residue 125 with either serine or isoleucine. As an example, the SEC chromatogram and SDS-PAGE pictures of P-0447 (SEQ ID NO: 173) and its Ile-125 counterpart P-0511 (SEQ ID NO: 213) were further illustrated in FIGS. 1D and 1E.

[2] = tested on: STAT5 phosphorylation in CD4+ Treg cells; assay: STAT5 phosphorylation in CD4+ Treg cells, human PBMC assay by FACS; type: cell-based
Source text: (§2) Single amino acid substitutions were introduced to IL-2 at positions corresponding to amino acids interacting with receptor subunit(s) β or γ or βγ. These substitutions were aimed to reduce IL-2 signaling capacity through the intermediate affinity IL-2Rβγ complex and confer signaling specificity from the high affinity IL-2Rαβγ. IL-2 variants containing single amino acid substitutions were examined for their ability to differentially stimulate STAT5 phosphorylation in CD4 positive Treg and Tconv cells. STAT5 is known to be involved in the downstream signaling cascade upon IL-2 binding to the transmembrane IL-2 receptors. The phosphorylation of STAT5 in defined lymphocyte subpopulations was measured using fresh human peripheral blood mononuclear cells (PBMC) and the forkhead transcription factor FOXP3 was used to identify the Treg population in FACS analysis.
(§3) Briefly, human PBMC were isolated by Ficoll-Hypaque centrifugation from the buffy coat of a healthy donor. PBMC were starved in serum-free MACS buffer at 4° C. for 1 hour. 2×10^5 PBMC were then treated with serial dilutions of test compounds for 30 min at 37° C. Cells were fixed and permeabilized with Foxp3/Transcription Factor Staining Buffer Set (EBIO) by incubating with 1× Foxp3 fixation/permeabilization working solution for 30 minutes and washing with 1× permeabilization buffer. Cells were additionally fixed with Cytofix buffer and permeabilized with Perm Buffer III (BD Biosciences) and then washed. After blocking Fc receptors by adding human TruStain FcX (1:50 dilution), cells were stained with a mixture of anti-CD25-PE, anti-FOXP3-APC, anti-pSTAT5-FITC, and anti-CD4-PerCP-Cy5.5 antibodies at concentrations recommended by the manufacturer for 45 minutes at room temperature. Cells were collected by centrifugation, washed, resuspended in FACS buffer, and analyzed by flow cytometry. The flow cytometry data was gated into CD4+/Foxp3+/CD25^high and CD4+/Foxp3−/CD25^low groups for the Treg and CD4 conventional T cell subsets, respectively. Data are expressed as a percent of pStat5 positive cells in gated population.

[3] = Aggregate content by size-exclusion chromatography after Protein A purification; type: physicochemical; details: for Aggregation % (SEC): after MabSelectSure
Protocol: For affinity chromatography each supernatant was loaded on a HiTrap MabSelectSure column (CV=5 mL, GE Healthcare) equilibrated with 25 ml phosphate buffered saline, pH 7.2 (ThermoFisher). Unbound protein was removed by washing with 5 column volumes PBS, pH 7.2 and target protein was eluted with 25 mM sodium citrate, 25 mM sodium chloride, pH 3.2. Protein solution was neutralized by adding 3% of 1 M Tris pH 10.2. Ion exchange chromatography or mix-mode chromatography, including but not limited to CaptoMMC (GE Healthcare), ceramic hydroxyapatite, or ceramic fluoroapatite (Bio-Rad) was also utilized to polish the Protein A material as needed. Target protein was concentrated with an Amicon®Ultra-15 concentrator 10 KDa NMWC (Merck Millipore Ltd.)
The purity and molecular weight of the purified constructs were analyzed by SDS-PAGE with and in the absence of a reducing agent and staining with Coomassie (Imperial® Stain). The NuPAGE® Pre-Cast gel system (4-12% or 8-16% Bis-Tris, ThermoFisher) was used according to the manufacturer's instructions. The protein concentration of purified protein samples was determined by measuring the UV absorbance at 280 nm (Nanodrop Spectrophotometer, ThermoFisher) divided by the molar extinction coefficient calculated on the basis of the amino acid sequence. The aggregate content of the constructs was analyzed on an Agilent 1200 high-performance liquid chromatography (HPLC) system. Samples were injected onto an AdvanceBio size-exclusion column (300 Å, 4.6×150 mm, 2.7 μm, LC column, Agilent) using 150 mM sodium phosphate, pH 7.0 as the mobile phase at 25° C.
as §1

[4] = tested on: CD4+ Treg vs CD4+ Tconv cells; assay: STAT5 phosphorylation, selectivity / activity profile Treg versus CD4+ Tconv cells, human PBMC; type: cell-based
Source text: as §2, §3
The S125I substitution was then introduced into wild-type IL-2 or IL-2 variants that already harbored 1 or 2 mutations targeting receptor subunit(s) β or γ or βγ. The resulting IL-2 variants containing isoleucine at position 125 were tested for their ability to stimulate STAT5 phosphorylation in Treg and Tconv cells in comparison with their respective serine counterparts at position 125. Table 7 lists the potency and selectivity of IL-2 variants in Treg cells. The two molecules in the same row of Table 7 share the same other amino acid substitution(s) and differ only at position 125 with either serine or isoleucine.

[5] = tested on: Treg cells; assay: Treg pharmacodynamics in mice after repeated administration Q3D (Example 11); type: in vivo, mouse; details: after three consecutive Q3D treatments, 0.3 mg/kg s.c.
Protocol: Female Balb/C mice (7-week old) were acclimated in house for 5-7 days before the study. Vehicle (PBS), 0.3 mg/kg of P-0511, P-0512, P-0531, or Benchmark-1 compound were subcutaneously administered to mice (n=5/group) on days 0, 3, and 6. On days 3 and 9, three days after the first injection and multiple (3) injections, respectively, peripheral blood was collected. Based on earlier in vivo experiments, Treg cell activation, proliferation, and expansion were expected to peak on day 3, and thus three days post injection was selected for data collection and analysis. Changes in blood lymphocyte activation, proliferation, and expansion were measured by flow cytometry. P-0531 is the S125I equivalent of the wild type IL-2 fusion protein. The Benchmark-1 contains V91K mutation.

[6] = tested on: STAT5 phosphorylation in CD4+ Tconv cells; assay: STAT5 phosphorylation in CD4+ Tconv cells, human PBMC assay by FACS; type: cell-based
Source text: as §2, §3

[7] = tested on: Treg cells; assay: Treg proliferation and expansion in mice after a single subcutaneous injection (Example 9); type: in vivo, mouse; details: 0.3 mg/kg single s.c., C57/BL6 mice; for stimulation of Treg cell proliferation and expansion in vivo (in words): days 3, 5, 7
Protocol: (§4) IL-2 variant Fc fusion proteins were administered to mice and their ability to preferentially proliferate and expand regulatory T cells (CD4+CD25+FoxP3+ T cells) over effector T cells and NK cells were determined in vivo.
(§5) Female C57/BL6 mice (7-week old) were received from Charles River Laboratory and acclimated in house for at least 7 days before the study. Vehicle (PBS), 0.3 mg/kg of each test compounds, or IL-2 benchmark compounds were subcutaneously administered to mice on day 0. Peripheral blood samples were collected into heparin-treated tubes on days 3, 5 and 7 post-treatment. Each group contained 6 mice and baseline blood was collected 2 days prior to the treatment (day −2). After red blood cell lysis, total viable mononuclear blood cells were counted by trypan blue dead cell exclusion method and proceeded to intracellular staining for immune cell phenotype and Ki67 proliferation markers using flow cytometric analysis. Cells were stained separately with two panels of antibodies as listed: 1) anti-mouse Foxp3-FITC, Ki67-PE, anti-mouse CD25-APC and anti-mouse CD4-Percpcy5.5 (1:50 dilution) for CD4+T-regulatory cells (Treg); 2) anti-mouse CD3-FITC, Ki67-PE, anti-mouse CD335-APC and anti-mouse CD8-Percpcy5.5 (1:50 dilution) for CD8+T and NK cells.

[8] = tested on: CD4+ Tconv cells, CD8 T cells and NK cells; assay: Effector T cell and NK cell proliferation and expansion in mice after a single subcutaneous injection (Example 9); type: in vivo, mouse; details: 0.3 mg/kg single s.c., C57/BL6 mice
Protocol: as §4, §5

Substance | STAT5 phosphorylation activity in Treg cells (in words) [2] | activity profile / selectivity window Treg over CD4+ Tconv (in words) [4] | Expression ([1]; Serine-125 constructs) [mg/L] | STAT5 phosphorylation activity in CD4+ Tconv cells (in words) [6] | Aggregation % (SEC) ([3]; Serine-125 constructs) [%] | Treg Selectivity ([4]; Serine-125 constructs) | also measured
P-0531: IL-2 S125I Fc fusion, S125I equivalent of wild type, SEQ ID NO: 167 | slightly increased potency | without altering Treg selectivity |  |  |  |  | Expression ([1]; Isoleucine-125 constructs): 29.5 mg/L; Aggregation % (SEC) ([3]; Isoleucine-125 constructs): 0.7%; Treg Selectivity ([4]; Isoleucine-125 constructs): Yes; % Treg over total CD4 T cells or over total lymphocytes [5]: declined drastically to near control levels
P-0372: IL-2 L19Y Fc fusion, SEQ ID NO: 81 | minimally impacted the pSTAT5 activation potency | modestly improved selective window | 4.0 | largely retained the biological activity | 21.7 | Yes | expression level (titer) ([1]; transiently in HEK-293F cells, Example 4): 4.0 mg/L; aggregates / high-molecular weight species (SEC) ([3]; Example 4): 21.7%
P-0514: IL-2 L19Q/S125I/Q126E Fc fusion, SEQ ID NO: 216 |  |  |  |  |  |  | Treg/Tconv ratio (Ki67 stimulation and cell counts) ([7]; all measured time points): most beneficial Treg/Tconv ratio; stimulation of Treg cell proliferation and expansion in vivo (in words) [7]: stronger in vivo efficacy; expansion of CD4+ Tconv cells, CD8 T cells or NK cells in vivo [8]: No significant expansion
P-0419: IL-2 L19Y/Q126E Fc fusion, SEQ ID NO: 105 | mainly reserved; also recorded: retained comparable potency; also recorded: significant potency | significantly widened; also recorded: very comparable to that of the Benchmark-1 molecule; also recorded: comparable activity profile to Benchmark-1 | 6.7 | varied significantly; also recorded: largely abolished | 33.8 | Yes | 
P-0447: IL-2 L19H/Q126E Fc fusion, SEQ ID NO: 173 | robust biological activity; also recorded: significant potency | on par with Benchmark-2 | 7.3 | nearly completely abolished; also recorded: largely abolished | 23.7 | Yes | 
Benchmark-3: benchmark Fc-IL-2 variant fusion protein containing N88D, SEQ ID NO: 199 [reference compound] |  |  |  |  |  |  | stimulation of Treg cell proliferation and expansion in vivo (in words) [7]: not efficacious; Ki67 stimulation on CD8 T cells and NK cells in vivo (in words) [8]: low effects
P-0425: IL-2 L19D Fc fusion, SEQ ID NO: 154 | slightly reduced potency | wide window for selective targeting of Treg subset | 2.6 | significantly impaired | 32.6 | Yes | 
P-0364: IL-2 D20E Fc fusion, SEQ ID NO: 75 | ability to induce STAT5 phosphorylation |  | 0.7 | largely diminished or abolished | 21.1 | Yes | 
